Measurements as given in the CheMixHub viscosity set.

Test: xn = mol fraction of the nth substance listed

CCCCOCCO + CCCCCC
viscosity [mPa·s], 101 kPa
Details	303.15 K	313.15 K
x1 = 0.0327	0.292	0.258
x1 = 0.1014	0.354	0.31
x1 = 0.1974	0.456	0.396
x1 = 0.2974	0.587	0.506
x1 = 0.395	0.741	0.634
x1 = 0.4968	0.93	0.787
x1 = 0.5957	1.148	0.956
x1 = 0.7323	1.507	1.23
x1 = 0.8316	1.793	1.458
x1 = 0.8992	2.025	1.634
x1 = 0.9658	2.271	1.79

CCOC(=O)CCl + CCCCCC
viscosity [mPa·s], 101.33 kPa
Details	x1 = 0.0977	x1 = 0.2029	x1 = 0.3028	x1 = 0.4001	x1 = 0.4982	x1 = 0.6039	x1 = 0.7027	x1 = 0.8032	x1 = 0.9022
298.15 K	0.342	0.375	0.416	0.465	0.524	0.602	0.683	0.787	0.923
303.15 K	0.326	0.357	0.396	0.441	0.495	0.566	0.641	0.739	0.861
308.15 K	0.309	0.339	0.377	0.417	0.466	0.53	0.6	0.69	0.8

COC(=O)c1ccccc1 + CCCCCC
101 kPa
Details	viscosity [mPa·s]
298.15 K, x2 = 0.0743	1.549
298.15 K, x2 = 0.1072	1.437
298.15 K, x2 = 0.1557	1.292
298.15 K, x2 = 0.2038	1.165
298.15 K, x2 = 0.2487	1.059
298.15 K, x2 = 0.306	0.942
298.15 K, x2 = 0.4327	0.739
298.15 K, x2 = 0.5799	0.573
298.15 K, x2 = 0.6269	0.531
298.15 K, x2 = 0.7731	0.43
298.15 K, x2 = 0.8687	0.379
298.15 K, x2 = 0.9288	0.356
308.15 K, x2 = 0.0711	1.287
308.15 K, x2 = 0.1099	1.188
308.15 K, x2 = 0.156	1.08
308.15 K, x2 = 0.1971	0.989
308.15 K, x2 = 0.2501	0.894
308.15 K, x2 = 0.2967	0.816
308.15 K, x2 = 0.3441	0.748
308.15 K, x2 = 0.3888	0.69
308.15 K, x2 = 0.4383	0.633
308.15 K, x2 = 0.4943	0.577
308.15 K, x2 = 0.5292	0.546
308.15 K, x2 = 0.5797	0.504
308.15 K, x2 = 0.6228	0.475
308.15 K, x2 = 0.6692	0.446
308.15 K, x2 = 0.7253	0.412
308.15 K, x2 = 0.767	0.392
308.15 K, x2 = 0.8162	0.37
308.15 K, x2 = 0.8731	0.347
308.15 K, x2 = 0.9205	0.329
318.15 K, x2 = 0.08	1.087
318.15 K, x2 = 0.0873	1.072
318.15 K, x2 = 0.1249	1
318.15 K, x2 = 0.1776	0.906
318.15 K, x2 = 0.2189	0.839
318.15 K, x2 = 0.2731	0.757
318.15 K, x2 = 0.3197	0.696
318.15 K, x2 = 0.3711	0.634
318.15 K, x2 = 0.4155	0.586
318.15 K, x2 = 0.4667	0.537
318.15 K, x2 = 0.5132	0.499
318.15 K, x2 = 0.5535	0.471
318.15 K, x2 = 0.6116	0.436
318.15 K, x2 = 0.6634	0.41
318.15 K, x2 = 0.7082	0.388
318.15 K, x2 = 0.7636	0.365
318.15 K, x2 = 0.8087	0.35
318.15 K, x2 = 0.8631	0.333
318.15 K, x2 = 0.9098	0.317

CCCCOCCO + CCCCCCC
viscosity [mPa·s], 101 kPa
Details	303.15 K	313.15 K
x1 = 0.0365	0.407	0.364
x1 = 0.1077	0.484	0.426
x1 = 0.2126	0.626	0.534
x1 = 0.316	0.799	0.661
x1 = 0.417	0.987	0.797
x1 = 0.5114	1.177	0.941
x1 = 0.6155	1.411	1.116
x1 = 0.7469	1.741	1.359
x1 = 0.845	2.011	1.55
x1 = 0.9057	2.162	1.654
x1 = 0.9663	2.306	1.784

CCOC(=O)CCl + CCCCCCC
viscosity [mPa·s], 101.33 kPa
Details	x1 = 0.1037	x1 = 0.203	x1 = 0.3009	x1 = 0.4005	x1 = 0.4992	x1 = 0.6048	x1 = 0.705	x1 = 0.8022	x1 = 0.8954
298.15 K	0.419	0.45	0.484	0.53	0.585	0.651	0.726	0.817	0.93
303.15 K	0.398	0.424	0.457	0.498	0.545	0.608	0.676	0.761	0.859
308.15 K	0.378	0.402	0.432	0.469	0.522	0.569	0.634	0.71	0.8

COC(=O)c1ccccc1 + CCCCCCC
viscosity [mPa·s], 101.3 kPa
Details	x1 = 0.0999	x1 = 0.196	x1 = 0.3001	x1 = 0.3974	x1 = 0.5004	x1 = 0.5978	x1 = 0.6984	x1 = 0.8033	x1 = 0.9017
298.15 K	0.425	0.464	0.533	0.601	0.701	0.814	0.968	1.183	1.435
308.15 K	0.382	0.418	0.472	0.535	0.616	0.708	0.839	1.008	1.197
318.15 K	0.346	0.378	0.422	0.475	0.539	0.62	0.72	0.86	1.024

c1ccc2c(c1)CCCC2 + CCCCCCCC
viscosity [mPa·s], 101 kPa
Details	x2 = 0.0997	x2 = 0.2011	x2 = 0.3013	x2 = 0.3997	x2 = 0.5003	x2 = 0.5995	x2 = 0.7001	x2 = 0.8014	x2 = 0.8955
293.15 K	1.831	1.527	1.303	1.143	0.976	0.85	0.747	0.673	0.612
298.15 K	1.675	1.405	1.207	1.063	0.918	0.811	0.702	0.635	0.58
303.15 K	1.533	1.294	1.118	0.989	0.857	0.762	0.662	0.599	0.55
313.15 K	1.308	1.117	0.971	0.866	0.757	0.675	0.592	0.539	0.496
